What all share (assay): DTP human tumour cell line panel, 48 h
Assay [1] deals with SF-268.
In assay [2] the test system is A549.
The subject of assay [3] is KM12.
Assay [4] relates to CAKI-1.
Assay [5] relates to DU-145.
The subject of assay [6] is CCRF-CEM.
Assay [7] relates to OVCAR-4.
In assay [8] the test system is NCI-H23.
For assay [9], the system named is HOP-62.
For assay [10], the system named is NCI/ADR-RES.
The subject of assay [11] is HCT-116.
Assay [12] has as its system COLO 205.
Assay [13] has as its system SK-OV-3.
The test system of assay [14] is RXF 393.
The test system of assay [15] is SNB-75.
In assay [16] the test system is U-251.
For assay [17], the system named is IGROV-1.
Assay [18] relates to MDA-MB-231.
Assay [19] deals with MOLT-4.
The subject of assay [20] is NCI-H522.

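Values below derive from 48-hour exposures of cells grown in 96-well plates, with endpoints linearly interpolated between the two concentrations bracketing the appropriate inhibition level. At the GI50, growth is halved.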 The source made the active and inactive calls. Cut-off read from the data, not from the text of the source: active = GI50 up to about 1.1 µM and inactive = higher.

On to `O=C(N/N=C/C=C/c1ccc([N+](=O)[O-])o1)c1ccc(Br)s1`, for which the GI50 (usually the concentration that inhibits growth by half) in assay [1] is 28.8 µM (inactive); in assay [2] it was 82.8 µM (inactive); in [3] it was 17.8 µM (inactive); in assay [4] it was 27.9 µM (inactive); in assay [5] it was 30.3 µM (inactive); in [6] it was 9.2 µM (inactive). In addition, the GI50 in [7] was 18.9 µM (inactive); in assay [8], 14.9 µM (inactive); in assay [9], 51.2 µM (inactive); in [10], 25.1 µM (inactive); in assay [11] it was 3.48 µM (inactive); in assay [12] it was 17 µM (inactive). Moreover, the GI50 in [13] was > 100 µM (inactive); in [14], 15.6 µM (inactive); in assay [15], > 100 µM (inactive); in assay [16] it was 28.1 µM (inactive); in assay [17], 6.76 µM (inactive); in [18], 22.8 µM (inactive). Moreover, the GI50 in [19] was 13.3 µM (inactive).
Consider `O=C1Cc2c(-c3ccccc3)cc(-c3cccc(Cl)c3)nc2-c2ccccc2N1`, for which the GI50 is 2.73 µM (inactive) in assay [1]; 1.05 µM (active) in assay [20]; 1.82 µM (inactive) in assay [2]; 5.02 µM (inactive) in [3]; 1.82 µM (inactive) in [4]; 2.61 µM (inactive) in assay [5]. In addition, the GI50 is 12.1 µM (inactive) in assay [6]; 1.5 µM (inactive) in assay [7]; 5.24 µM (inactive) in [8]; 1.38 µM (inactive) in assay [9]; 2.05 µM (inactive) in [10]; 1.6 µM (inactive) in assay [11]. For the same compound, the GI50 in assay [12] was 6.62 µM (inactive); in assay [13], 1.86 µM (inactive); in assay [14] it was 2.15 µM (inactive); in [15], 1.77 µM (inactive); in [16], 1.75 µM (inactive); in assay [17] it was 1.2 µM (inactive). The GI50 is 1.15 µM (inactive) in [18] and 20.1 µM (inactive) in assay [19].
Turning to `COC(=O)c1ccc(NCC2=C(Br)C(=O)C=CC2=O)cc1Cl`, the GI50 in [1] was 16.8 µM (inactive); in assay [20], 6.43 µM (inactive); in assay [2], > 100 µM (inactive); in [3], 34.5 µM (inactive); in assay [4], 26.9 µM (inactive); in [5], 22.8 µM (inactive). Moreover, the GI50 in assay [6] is > 100 µM (inactive); in assay [7], 24.4 µM (inactive); in [8], 21 µM (inactive); in assay [10], 23.2 µM (inactive); in assay [11], 18 µM (inactive); in [12] it was 17.8 µM (inactive). For the same compound, the GI50 was > 100 µM (inactive) in [13]; 42.5 µM (inactive) in [15]; 22.8 µM (inactive) in assay [16]; 15.5 µM (inactive) in [17]; 18.3 µM (inactive) in [18]; 17.7 µM (inactive) in assay [19].
Take `COP(=O)(OC)C(Cc1cn(C(C)=O)c2ccccc12)C(=O)O` (stereo unspecified): the GI50 in assay [20], in [2], in [4], in assay [5], in assay [6] and in assay [7] was > 100 µM (inactive) each time. Moreover, the GI50 in [8], in assay [9], in [10], in [11], in [12] and in [13] was > 100 µM (inactive) each time. In addition, the GI50 in assay [15], in [16], in assay [17], in assay [18] and in [19] was > 100 µM (inactive) in each case.
As to `CCSc1nc(N)c2c(-c3ccc(OC)c(OC)c3)c3c(nc2n1)CCCC3`, the GI50 in assay [1], in assay [2], in assay [3], in [4], in [5] and in assay [6] was > 100 µM (inactive) throughout. Moreover, the GI50 in assay [7], in [8], in assay [9], in [10], in [11] and in assay [12] was > 100 µM (inactive) each time. Besides, the GI50 was > 100 µM (inactive) in [13]; > 100 µM (inactive) in assay [14]; 58.2 µM (inactive) in [15]; > 100 µM (inactive) in assay [16]; > 100 µM (inactive) in [17]; > 100 µM (inactive) in assay [18]. Besides, in [19], the GI50 was > 100 µM (inactive).
Regarding `COc1cc(CCCl)c(CC2=NCCc3cc(OC)c(OC)cc32)cc1OC`, the GI50 was 97.3 µM (inactive) in [1]; > 100 µM (inactive) in [2]; 71.1 µM (inactive) in assay [3]; 34 µM (inactive) in assay [4]; > 100 µM (inactive) in assay [5]; 45.7 µM (inactive) in assay [6]. Besides, the GI50 in [7] is > 100 µM (inactive); in [8], > 100 µM (inactive); in assay [9], 20.8 µM (inactive); in assay [10] it was > 100 µM (inactive); in assay [11], 24.4 µM (inactive); in assay [12] it was 47.4 µM (inactive). For the same compound, the GI50 is > 100 µM (inactive) in assay [13]; 32.3 µM (inactive) in assay [14]; > 100 µM (inactive) in [15]; > 100 µM (inactive) in assay [16]; 29.4 µM (inactive) in assay [17]; 55.7 µM (inactive) in [18]. Also, in assay [19], the GI50 is > 100 µM (inactive).
On to `CCP(=O)(CC)C(Cl)Cl`, for which the GI50 in [20], in [2], in [4], in assay [5], in assay [6] and in [7] was > 100 µM (inactive) in each case. The GI50 in [8], in [9], in assay [10], in [11], in assay [12] and in assay [13] was > 100 µM (inactive) throughout. In addition, the GI50 in assay [15], in assay [16], in [17], in assay [18] and in [19] was > 100 µM (inactive) throughout.
As to `CCOC(=O)c1c(-c2ccccc2)c(C)cn1C`, the GI50 in assay [1], in assay [20], in assay [2], in [3], in [5] and in assay [6] was > 10 µM (inactive) each time. In addition, the GI50 in assay [7], in [8], in assay [10], in assay [11], in assay [13] and in assay [14] was > 10 µM (inactive) each time. Besides, the GI50 in assay [15] is > 10 µM (inactive); in assay [16], > 10 µM (inactive); in assay [17], > 10 µM (inactive); in [18], 0.0125 µM (active); in assay [19] it was > 10 µM (inactive).
Regarding `CCOC(=O)C[C@@H]1C2(C=C[C@@]13CO3)OCC(C)(C)CO2`, the GI50 in assay [1] is > 100 µM (inactive); in assay [2], > 100 µM (inactive); in [4], > 100 µM (inactive); in assay [5] it was > 100 µM (inactive); in assay [6], > 100 µM (inactive); in [7], 8.2 µM (inactive). Further, the GI50 in assay [8], in assay [9], in assay [10], in assay [11], in [12] and in assay [13] was > 100 µM (inactive) each time. Further, the GI50 in [14], in assay [15], in [16], in assay [17], in assay [18] and in [19] was > 100 µM (inactive) each time.
As to `CCCCCc1cccc(=O)o1`, the GI50 in [1], in assay [20], in assay [2], in assay [3], in assay [4] and in assay [5] was > 100 µM (inactive) each time. Besides, the GI50 in assay [6], in assay [7], in [8], in assay [9], in assay [10] and in assay [11] was > 100 µM (inactive) throughout. The GI50 in assay [12], in assay [13], in assay [14], in assay [16], in assay [17] and in assay [18] was > 100 µM (inactive) throughout. Further, the GI50 in assay [19] is > 100 µM (inactive).
For the compound `COP(=O)(OC)[C@H](O)[C@H]1C[C@@H]1c1ccccc1`, the GI50 in assay [1], in assay [20], in [2], in assay [3], in [4] and in [5] was > 100 µM (inactive) in each case. Besides, the GI50 in assay [7], in [8], in [9], in assay [10], in assay [12] and in [13] was > 100 µM (inactive) in each case. In addition, the GI50 in assay [14], in assay [15], in [16], in [17], in assay [18] and in assay [19] was > 100 µM (inactive) each time.

(Values after ChEMBL document CHEMBL1201862, “PubChem BioAssay data set” (2004).)
